Test results: ChEMBL document CHEMBL1201862, “PubChem BioAssay data set” (2004)
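Briefly, cells in 96-well plates were exposed to five compound concentrations for 48 h, and endpoints were estimated by linear interpolation. GI50 = concentration required for 50% inhibition of growth.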 Calls of active or inactive are those of the source. Rule as the data show it: active = GI50 up to about 1.1 µM and inactive = higher.

What was measured:
Assay in all cases: NCI anticancer screen, dose series, 48 h
NCI-H226 = test system: NCI-H226
SK-MEL-28 = test system: SK-MEL-28
K562 = test system: K562
SK-MEL-5 = test system: SK-MEL-5
SNB-78 = test system: SNB-78
HL-60 = test system: HL-60
U-251 = test system: U-251
HOP-62 = test system: HOP-62
TK-10 = test system: TK-10
SNB-75 = test system: SNB-75
A549 = test system: A549
XF498 = test system: XF498
SR = test system: SR
UACC-257 = test system: UACC-257
CCRF-CEM = test system: CCRF-CEM
NCI-H522 = test system: NCI-H522
EKVX = test system: EKVX
MOLT-4 = test system: MOLT-4
DMS-114 = test system: DMS-114
SN12C = test system: SN12C
OVCAR-5 = test system: OVCAR-5
NCI-H460 = test system: NCI-H460
M14 = test system: M14
KM-20L2 = test system: KM-20L2
SW-620 = test system: SW-620
SK-OV-3 = test system: SK-OV-3
OVCAR-4 = test system: OVCAR-4
HCT-15 = test system: HCT-15
UACC-62 = test system: UACC-62
IGROV-1 = test system: IGROV-1
KM12 = test system: KM12
HCT-116 = test system: HCT-116
RXF 393 = test system: RXF 393
ACHN = test system: ACHN
786-0 = test system: 786-0
A498 = test system: A498
CAKI-1 = test system: CAKI-1
HOP-92 = test system: HOP-92
SF-539 = test system: SF-539
Malme-3M = test system: Malme-3M
SNB-19 = test system: SNB-19
UO-31 = test system: UO-31
OVCAR-8 = test system: OVCAR-8
SF-295 = test system: SF-295
SF-268 = test system: SF-268
SK-MEL-2 = test system: SK-MEL-2
HCC 2998 = test system: HCC 2998
NCI-H23 = test system: NCI-H23
DMS-273 = test system: DMS-273
DLD-1 = test system: DLD-1
RPMI-8226 = test system: RPMI-8226
RXF 631 = test system: RXF 631
HOP-18 = test system: HOP-18
LXFL 529 = test system: LXFL 529
HT-29 = test system: HT-29
LOX IMVI = test system: LOX IMVI
COLO 205 = test system: COLO 205
M19-MEL = test system: M19-MEL
OVCAR-3 = test system: OVCAR-3

CCOC(=O)/N=c1/nc(N(C)C)ss1
GI50 (NCI-H226): 30.3 µM (inactive)
GI50 (SK-MEL-28): > 100 µM (inactive)
GI50 (K562): > 100 µM (inactive)
GI50 (SK-MEL-5): > 100 µM (inactive)
GI50 (SNB-78): > 100 µM (inactive)
GI50 (HL-60): > 100 µM (inactive)
GI50 (U-251): > 100 µM (inactive)
GI50 (HOP-62): > 100 µM (inactive)
GI50 (TK-10): > 100 µM (inactive)
GI50 (SNB-75): > 100 µM (inactive)
GI50 (A549): > 100 µM (inactive)
GI50 (XF498): > 100 µM (inactive)
GI50 (SR): > 100 µM (inactive)
GI50 (UACC-257): > 100 µM (inactive)
GI50 (CCRF-CEM): > 100 µM (inactive)
GI50 (NCI-H522): > 100 µM (inactive)
GI50 (EKVX): > 100 µM (inactive)
GI50 (MOLT-4): > 100 µM (inactive)
GI50 (DMS-114): > 100 µM (inactive)
GI50 (SN12C): > 100 µM (inactive)
GI50 (OVCAR-5): > 100 µM (inactive)
GI50 (NCI-H460): > 100 µM (inactive)
GI50 (M14): > 100 µM (inactive)
GI50 (KM-20L2): > 100 µM (inactive)
GI50 (SW-620): > 100 µM (inactive)
GI50 (SK-OV-3): > 100 µM (inactive)
GI50 (OVCAR-4): > 100 µM (inactive)
GI50 (HCT-15): > 100 µM
GI50 (UACC-62): > 100 µM (inactive)
GI50 (IGROV-1): > 100 µM (inactive)
GI50 (KM12): > 100 µM (inactive)
GI50 (HCT-116): > 100 µM (inactive)
GI50 (RXF 393): > 100 µM (inactive)
GI50 (ACHN): > 100 µM (inactive)
GI50 (786-0): > 100 µM (inactive)
GI50 (A498): > 100 µM (inactive)
GI50 (CAKI-1): > 100 µM (inactive)
GI50 (HOP-92): > 100 µM (inactive)
GI50 (SF-539): > 100 µM (inactive)
GI50 (Malme-3M): > 100 µM (inactive)
GI50 (SNB-19): > 100 µM (inactive)
GI50 (UO-31): > 100 µM (inactive)
GI50 (OVCAR-8): > 100 µM (inactive)
GI50 (SF-295): > 100 µM (inactive)
GI50 (SF-268): > 100 µM (inactive)
GI50 (SK-MEL-2): > 100 µM (inactive)
GI50 (HCC 2998): > 100 µM (inactive)
GI50 (NCI-H23): > 100 µM (inactive)
GI50 (DMS-273): > 100 µM (inactive)
GI50 (DLD-1): > 100 µM (inactive)
GI50 (RPMI-8226): > 100 µM (inactive)
GI50 (RXF 631): > 100 µM (inactive)
GI50 (HOP-18): > 100 µM (inactive)
GI50 (LXFL 529): > 100 µM (inactive)
GI50 (HT-29): > 100 µM (inactive)

O=C(O)C1=C(Cl)c2ccccc2S1(=O)=O
GI50 (SK-MEL-28): > 100 µM (inactive)
GI50 (K562): > 100 µM (inactive)
GI50 (SK-MEL-5): > 100 µM (inactive)
GI50 (SNB-78): > 100 µM (inactive)
GI50 (HL-60): > 100 µM (inactive)
GI50 (HOP-62): > 100 µM (inactive)
GI50 (TK-10): > 100 µM (inactive)
GI50 (SNB-75): > 100 µM (inactive)
GI50 (A549): > 100 µM (inactive)
GI50 (XF498): > 100 µM (inactive)
GI50 (UACC-257): > 100 µM (inactive)
GI50 (CCRF-CEM): > 100 µM (inactive)
GI50 (NCI-H522): 19.8 µM (inactive)
GI50 (EKVX): > 100 µM (inactive)
GI50 (MOLT-4): > 100 µM (inactive)
GI50 (DMS-114): > 100 µM (inactive)
GI50 (SN12C): > 100 µM (inactive)
GI50 (OVCAR-5): > 100 µM (inactive)
GI50 (NCI-H460): > 100 µM (inactive)
GI50 (LOX IMVI): > 100 µM (inactive)
GI50 (M14): > 100 µM (inactive)
GI50 (KM-20L2): > 100 µM (inactive)
GI50 (SW-620): > 100 µM (inactive)
GI50 (SK-OV-3): > 100 µM (inactive)
GI50 (OVCAR-4): > 100 µM (inactive)
GI50 (HCT-15): > 100 µM
GI50 (UACC-62): > 100 µM (inactive)
GI50 (IGROV-1): > 100 µM (inactive)
GI50 (COLO 205): > 100 µM (inactive)
GI50 (KM12): > 100 µM (inactive)
GI50 (RXF 393): > 100 µM (inactive)
GI50 (M19-MEL): > 100 µM (inactive)
GI50 (786-0): > 100 µM (inactive)
GI50 (OVCAR-3): > 10 µM (inactive)
GI50 (CAKI-1): > 100 µM (inactive)
GI50 (HOP-92): > 100 µM (inactive)
GI50 (Malme-3M): > 100 µM (inactive)
GI50 (SNB-19): > 100 µM (inactive)
GI50 (UO-31): > 100 µM (inactive)
GI50 (OVCAR-8): > 100 µM (inactive)
GI50 (SF-295): > 100 µM (inactive)
GI50 (SF-268): > 100 µM (inactive)
GI50 (SK-MEL-2): > 100 µM (inactive)
GI50 (HCC 2998): > 100 µM (inactive)
GI50 (NCI-H23): > 100 µM (inactive)
GI50 (DLD-1): > 100 µM (inactive)
GI50 (RPMI-8226): > 100 µM (inactive)
GI50 (RXF 631): > 100 µM (inactive)
GI50 (LXFL 529): > 100 µM (inactive)

COc1c(C)n(CCO)ccc1=O
GI50 (NCI-H226): > 100 µM (inactive)
GI50 (SK-MEL-28): > 100 µM (inactive)
GI50 (K562): > 100 µM (inactive)
GI50 (SK-MEL-5): > 100 µM (inactive)
GI50 (SNB-78): > 100 µM (inactive)
GI50 (HL-60): > 100 µM (inactive)
GI50 (U-251): > 100 µM (inactive)
GI50 (HOP-62): > 100 µM (inactive)
GI50 (TK-10): > 100 µM (inactive)
GI50 (SNB-75): > 100 µM (inactive)
GI50 (A549): > 100 µM (inactive)
GI50 (XF498): > 100 µM (inactive)
GI50 (SR): > 100 µM (inactive)
GI50 (UACC-257): > 100 µM (inactive)
GI50 (CCRF-CEM): > 100 µM (inactive)
GI50 (NCI-H522): > 100 µM (inactive)
GI50 (EKVX): > 100 µM (inactive)
GI50 (MOLT-4): > 100 µM (inactive)
GI50 (DMS-114): > 100 µM (inactive)
GI50 (SN12C): > 100 µM (inactive)
GI50 (OVCAR-5): > 100 µM (inactive)
GI50 (NCI-H460): > 100 µM (inactive)
GI50 (LOX IMVI): > 100 µM (inactive)
GI50 (M14): > 100 µM (inactive)
GI50 (KM-20L2): > 100 µM (inactive)
GI50 (SW-620): > 100 µM (inactive)
GI50 (SK-OV-3): > 100 µM (inactive)
GI50 (OVCAR-4): > 100 µM (inactive)
GI50 (HCT-15): > 100 µM
GI50 (UACC-62): > 100 µM (inactive)
GI50 (COLO 205): > 100 µM (inactive)
GI50 (KM12): > 100 µM (inactive)
GI50 (HCT-116): > 100 µM (inactive)
GI50 (RXF 393): > 100 µM (inactive)
GI50 (ACHN): > 100 µM (inactive)
GI50 (M19-MEL): > 100 µM (inactive)
GI50 (786-0): > 100 µM (inactive)
GI50 (A498): > 100 µM (inactive)
GI50 (OVCAR-3): > 100 µM (inactive)
GI50 (CAKI-1): > 100 µM (inactive)
GI50 (HOP-92): > 100 µM (inactive)
GI50 (Malme-3M): > 100 µM (inactive)
GI50 (SNB-19): > 100 µM (inactive)
GI50 (UO-31): > 100 µM (inactive)
GI50 (OVCAR-8): > 100 µM (inactive)
GI50 (SF-295): > 100 µM (inactive)
GI50 (SF-268): > 100 µM (inactive)
GI50 (SK-MEL-2): > 100 µM (inactive)
GI50 (DMS-273): > 100 µM (inactive)
GI50 (DLD-1): > 100 µM (inactive)
GI50 (RPMI-8226): > 100 µM (inactive)
GI50 (RXF 631): > 100 µM (inactive)
GI50 (LXFL 529): > 100 µM (inactive)
GI50 (HT-29): > 100 µM (inactive)
